For the assay, the target named is T1, JAK3 (JH1 and JH2 domain) (Homo sapiens, UniProt P52333).
T1 sequence (P52333 521-1111 limits assumed): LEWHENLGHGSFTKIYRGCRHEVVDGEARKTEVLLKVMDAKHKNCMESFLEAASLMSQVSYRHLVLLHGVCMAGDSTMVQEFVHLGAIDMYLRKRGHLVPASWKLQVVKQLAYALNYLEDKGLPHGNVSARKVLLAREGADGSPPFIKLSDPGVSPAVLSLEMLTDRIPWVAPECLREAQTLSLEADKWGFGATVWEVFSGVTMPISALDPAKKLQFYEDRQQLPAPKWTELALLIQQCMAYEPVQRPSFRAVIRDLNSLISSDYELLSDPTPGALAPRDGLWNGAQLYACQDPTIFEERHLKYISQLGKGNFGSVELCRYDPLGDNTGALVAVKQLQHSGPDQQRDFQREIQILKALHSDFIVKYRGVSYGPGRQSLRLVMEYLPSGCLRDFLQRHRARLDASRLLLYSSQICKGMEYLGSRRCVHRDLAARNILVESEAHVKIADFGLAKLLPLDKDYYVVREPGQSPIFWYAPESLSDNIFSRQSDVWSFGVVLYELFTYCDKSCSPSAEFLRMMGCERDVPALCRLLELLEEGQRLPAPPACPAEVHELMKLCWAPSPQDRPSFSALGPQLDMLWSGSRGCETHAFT
In words: JAK3 Kinase Assay (ELISA of peptide substrate phosphorylation). It counts as biochemical. Conditions: purified JAK3 enzyme, 10 μM ATP, biotinylated peptide substrate, 1 hour at room temperature. The gist of the method: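 Sf21-baculovirus-expressed JAK3 (JH1+JH2), glutathione-bead purified, with biotinylated peptide substrate (in buffer containing 10 μM ATP) in HEPES pH 7.5/MgCl2/DTT, 1 h RT. Product was captured on Neutravidin, detected with HRP anti-phosphotyrosine (PY99)/TMB, OD 450/650 nm. Triplicate 16-point half-log series from 200 μM gave IC50; otherwise % inhibition at 1 μM.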
For orientation: In an ELISA, binding on a coated surface is turned into a signal by an enzyme label.
As usually defined, the IC50 is the point on the concentration scale where inhibition reaches its midpoint. With `O=C1NCc2c1c1c3ccccc3n3c1c1c2c2ccccc2n1Cc1c[nH]cc1C3` [Cpd 30, 12,13-(1H-pyrrol[3,4-b]butan-1,4-yl)-6,7,12,13-tetrahydro-5-oxo-5H-indolo[2,3-a]pyrrolo[3,4-c]carbazole], the IC50 was 68 nM.

On to `COCCNC(=O)C1(O)Cn2c3ccccc3c3c4c(c5c6ccccc6n(c5c32)CC1O)C(=O)NC4=O` (stereo not drawn) [Cpd 124, 12,13-{2-[(2-methoxy-ethyl)carbamoyl]-2,3-dihydroxy-butan-1,4-yl}-12,13-dihydro-5,7-dioxo-6H-indolo[2,3-a]pyrrolo[3,4-c]carbazole], for which the IC50 was 52 nM.

On to `COc1ccc(CCNC(=O)OCC2(O)Cn3c4ccccc4c4c5c(c6c7ccccc7n(c6c43)C2)C(=O)NC5)cc1OC` (stereo not drawn) [Cpd 153, 12,13-(2-hydroxy-2-{[2-(3,4-dimethoxy-phenyl)ethyl]carbamoyloxymethyl}-propan-1,3-yl)-6,7,12,13-tetrahydro-5-oxo-5H-indolo[2,3-a]pyrrolo[3,4-c]carbazole], for which the IC50 is 17 nM.

Consider `O=C1NC(=O)c2c1c1c3ccccc3n3c1c1c2c2ccccc2n1CC(O)(C(=O)N1CCN(CCO)CC1)C(O)C3` (stereo not drawn) [Cpd 130], for which the IC50 worked out at 48 nM.

With `O=C1NC(=O)c2c1c1c3ccccc3n3c1c1c2c2ccccc2n1CC(OC(=O)N1CCN(C2CCCCC2)CC1)C(O)C3` (stereo not drawn) [Cpd 101, 12,13-{2-[(4-cyclohexyl-piperazin-1-yl)carbonyloxy]-3-hydroxy-butan-1,4-yl}-12,13-dihydro-5,7-dioxo-6H-indolo[2,3-a]pyrrolo[3,4-c]carbazole], the IC50 was 1100 nM.

Take `O=C(NC1CCN(Cc2ccccc2)CC1)OCC1(O)Cn2c3ccccc3c3c4c(c5c6ccccc6n(c5c32)C1)C(=O)NC4` (stereo not drawn) [Cpd 145, 12,13-{2-hydroxy-2-[(1-benzyl-piperidin-4-yl)carbamoyloxymethyl]-propan-1,3-yl}-6,7,12,13-tetrahydro-5-oxo-5H-indolo[2,3-a]pyrrolo[3,4-c]carbazole]: the IC50 turned out to be 31 nM.

In the case of `O=C(NCCCn1ccnc1)OCC1(O)Cn2c3ccccc3c3c4c(c5c6ccccc6n(c5c32)C1)C(=O)NC4` (stereo not drawn) [Cpd 152, 12,13-{2-hydroxy-2-[(3-1H-imidazol-1-yl-prop-1-yl)carbamoyloxymethyl]-propan-1,3-yl}-6,7,12,13-tetrahydro-5-oxo-5H-indolo[2,3-a]pyrrolo[3,4-c]carbazole], the IC50 worked out at 84 nM.

For the molecule `O=C1NCc2c1c1c3ccccc3n3c1c1c2c2ccccc2n1CCC(O)CC3` (stereo not drawn) [Cpd 28, 12,13-(3-hydroxy-pentan-1,5-yl)-6,7,12,13-tetrahydro-5-oxo-5H-indolo[2,3-a]pyrrolo[3,4-c]carbazole], the IC50 worked out at 58 nM.

In the case of `CN(C)CCN(C)C(=O)OCC1(O)Cn2c3ccccc3c3c4c(c5c6ccccc6n(c5c32)C1)C(=O)NC4` (stereo not drawn) [Cpd 148, 12,13-(2-hydroxy-2-{[N-methyl-N-(2-dimethylamino-ethyl)]carbamoyloxymethyl}-propan-1,3-yl)-6,7,12,13-tetrahydro-5-oxo-5H-indolo[2,3-a]pyrrolo[3,4-c]carbazole], the IC50 was 25 nM.

The values are drawn from patent publication US20070249590A1, “Substituted indolo[2,3-a]pyrrolo[3,4-c]carbazole compounds useful in treating kinase disorders” (priority 2005, published 2007).
